Reference: ChEMBL document CHEMBL5532698, “2,3-Dihydroquinazolin-4(1H)-ones and quinazolin-4(3H)-ones as broad-spectrum cytotoxic agents and their impact on tubulin polymerisation” (RSC Med Chem, 2024)

Legend:
MCF7 = assay: Antiproliferative activity against human MCF7 cells assessed as cell growth inhibition at 25 uM incubated for 72 hrs by MTT assay relative to control; assay type: functional
NCI-H460 = assay: Antiproliferative activity against human NCI-H460 cells assessed as cell growth inhibition at 25 uM incubated for 72 hrs by MTT assay relative to control; assay type: functional
DU-145 = assay: Antiproliferative activity against human DU-145 cells assessed as cell growth inhibition at 25 uM incubated for 72 hrs by MTT assay relative to control; assay type: functional
BE(2)-C = assay: Antiproliferative activity against human BE2C cells assessed as cell growth inhibition at 25 uM incubated for 72 hrs by MTT assay relative to control; assay type: functional
A2780 = assay: Antiproliferative activity against human A2780 cells assessed as cell growth inhibition at 25 uM incubated for 72 hrs by MTT assay relative to control; assay type: functional
MIA PaCa-2 = assay: Antiproliferative activity against human MIA PaCa-2 cells assessed as cell growth inhibition at 25 uM incubated for 72 hrs by MTT assay relative to control; assay type: functional
[1] = Antiproliferative activity against human SJG2 cells assessed as cell growth inhibition at 25 uM incubated for 72 hrs by MTT assay relative to control; assay type: functional; details: SJ-G2
[2] = Cytotoxicity against human MCF-10A cells assessed as cell growth inhibition at 25 uM incubated for 72 hrs by MTT assay relative to control; assay type: toxicity, cell-based
A-431 = assay: Antiproliferative activity against human A-431 cells assessed as cell growth inhibition at 25 uM incubated for 72 hrs by MTT assay relative to control; assay type: functional
U-87 MG = assay: Antiproliferative activity against human U87 cells assessed as cell growth inhibition at 25 uM incubated for 72 hrs by MTT assay relative to control; assay type: functional, U-87MG ATCC
HT-29 = assay: Antiproliferative activity against human HT-29 cells assessed as cell growth inhibition at 25 uM incubated for 72 hrs by MTT assay relative to control; assay type: functional

SMILES	inhibition at 25 µM (MCF7) [%]	inhibition at 25 µM (NCI-H460) [%]	inhibition at 25 µM (DU-145) [%]	inhibition at 25 µM (BE(2)-C) [%]	inhibition at 25 µM (A2780) [%]	inhibition at 25 µM (MIA PaCa-2) [%]	inhibition at 25 µM [1] [%]	inhibition at 72 h, 25 µM [2] [%]	inhibition at 25 µM (A-431) [%]	inhibition at 25 µM (U-87 MG) [%]	inhibition at 25 µM (HT-29) [%]
O=C1NC(C2CCCCC2)Nc2ccccc21 (stereo not given)	18	< 10	18	32	41	12	< 10	8	22	10	23
Oc1nc(-c2ccncc2)nc2ccccc12	< 10	15	< 10	< 10	< 10	10	< 10	< 10	< 10	< 10	11
CCCC/C=C/c1nc2ccccc2c(=O)[nH]1	16	33	26	< 10	43	18	16	11	22	25	< 10
O=C1NC(c2cccnc2)Nc2ccccc21 (stereo not given)	21	< 10	< 10	< 10	< 10	11	< 10	< 10	< 10	< 10	< 10
O=C1NC(c2c[nH]c3ccccc23)Nc2ccccc21 (stereo not given)	78	87	≥ 77	89	94	79	> 100	90	≥ 79	70	≥ 84
O=C1NC(c2ccccc2C(=O)O)Nc2ccccc21 (stereo not given)	49	43	20	19	48	20	49	20	22	< 10	37
CCCCC1NC(=O)c2ccccc2N1 (stereo not given)	25	< 10	25	38	59	16	< 10	13	30	9	32
O=c1[nH]c(-c2ccccc2Br)nc2ccccc12	10	20	25	23	13	24	11	17	12	14	15
O=C1NC(c2ccc(Br)o2)Nc2ccccc21 (stereo not given)	13	< 10	< 10	20	37	< 10	12	< 10	< 10	< 10	< 10
N#Cc1cccc(C2NC(=O)c3ccccc3N2)c1 (stereo not given)	60	17	26	20	54	14	18	12	34	19	31
